Test results published in US20240090497A1, “SURFACTANT BLENDS FOR HYPOHALITE-BASED DISINFECTING COMPOSITIONS” (GOJO Industries, Inc., priority 2022, published 2024).

Experiment: Surface tension of hypohalite-based disinfecting compositions, Wilhelmy plate method
Assay type: physicochemical
Settings: hypohalite-based disinfecting composition with this surfactant alone (0% or 100% point of the blend plot)
Protocol: Various combinations of surfactants were tested with respect to the surface tension of hypohalite-based disinfecting compositions comprising the surfactant blend. Specifically, exemplary blends were prepared using varying surfactants having an average tail chain length of a C10 to C14 value. The surfactant blends were tested at varying molar ratios.
Accordingly, each surfactant blend comprised a first surfactant having a first surfactant surface tension T^1 and a second surfactant having a second surfactant surface tension T^2. The respective overall surface tension T for each surfactant blend was thereafter tested, using the Wilhelmy plate method.

CCCCCCCCCCO[C@@H]1O[C@H](CO)[C@@H](O)[C@H](O)[C@H]1O [decyl glucoside]
individual surfactant surface tension: 28.7 mN/m

CCCCCCCCCCCCOS(=O)(=O)[O-].[Na+] [sodium lauryl sulfate]
individual surfactant surface tension: 29.7 mN/m

CCCCCCCCCCCCCCOS(=O)(=O)[O-].[Na+] [sodium myristyl sulfate]
individual surfactant surface tension: 39.8 mN/m

cocobetaine
individual surfactant surface tension: 34.7 mN/m

lauramine oxide
individual surfactant surface tension: 32.4 mN/m

laureth-6
individual surfactant surface tension: 29.7 mN/m

myristamine oxide
individual surfactant surface tension: 32.1 mN/m

undeceth-3
individual surfactant surface tension: 26.9 mN/m
